One data set addresses CYP3A4 (Homo sapiens, UniProt P08684). The data set is described as follows: Cytochrome P450 (CYP450) Inhibition Assay, CYP3A4 (Vivid fluorescence, BOMCC substrate). The following applies: human, P450 Baculosomes (recombinant CYP3A4), probe BOMCC (Vivid substrate).
For another data set, the system named is sodium channel. Description: Guanidine influx assay (14C-guanidine radiotracer flux, in vitro). Type of data set: cell-based, human or rat. The note with it: guanidine influx assay using a known cell line that expresses a sodium channel; activity level class. The source says: This example describes an in vitro assay for testing and profiling test agents against human or rat sodium channels stably expressed in cells of either an endogenous or recombinant origin. The assay is also useful for determining the IC50 of a sodium channel blocking compound. The assay is based on the guanidine flux assay described by Reddy, N. L., et al., J. Med. Chem. (1998), 41(17):3298-302.
The guanidine influx assay is a radiotracer flux assay used to determine ion flux activity of sodium channels in a high-throughput microplate-based format. The assay uses ^14C-guanidine hydrochloride in combination with various known sodium channel modulators, to assay the potency of test agents. Potency is determined by an IC50 calculation. Selectivity is determined by comparing potency of the compound for the channel of interest to its potency against other sodium channels (also called ‘selectivity profiling’).
Each of the test agents is assayed against cells that express the channels of interest. Voltage gated sodium channels are either TTX sensitive or insensitive. This property is useful when evaluating the activities of a channel of interest when it resides in a mixed population with other sodium channels. The following Table 1 summarizes cell lines useful in screening for a certain channel activity in the presence or absence of TTX.
It is also possible to employ recombinant cells expressing these sodium channels. Cloning and propagation of recombinant cells are known to those skilled in the art (see, for example, Klugbauer, N, et al., EMBO J. (1995), 14(6):1084-90; and Lossin, C., et al., Neuron (2002), 34, pp. 877-884).
Cells expressing the channel of interest are grown according to the supplier or in the case of a recombinant cell in the presence of selective growth media such as G418 (Gibco/Invitrogen). The cells are disassociated from the culture dishes with an enzymatic solution (Ix) Trypsin/EDTA (Gibco/Invitrogen) and analyzed for density and viability using haemocytometer (Neubauer). Disassociated cells are washed and resuspended in their culture media then plated into Scintiplates (Beckman Coulter Inc.) (approximately 100,000 cells/well) and incubated at 37° C./5% CO2 for 20-24 hours. After an extensive wash with Low sodium HEPES-buffered saline solution (LNHBSS) (150 mM Choline Chloride, […] (Sigma), 1 mM Calcium Chloride, 5 mM Potassium Chloride, 1 mM Magnesium Chloride, 10 mM Glucose) agents diluted with LNHBSS are added to each well. (Varying concentrations of test agent may be used). The activation/radiolabel mixture contains aconitine (Sigma) to increase the percentage of time that the sodium channels are open, and ^14C-guanidine hydrochloride (ARC) to measure flux through the voltage-gated sodium channels.
After loading the cells with test agent and activation/radiolabel mixture, the Scintiplates are incubated at ambient temperature. Following the incubation, the Scintplates are extensively washed with LNHBSS supplemented with guanidine (Sigma). The Scintiplates are dried and then counted using a Wallac MicroBeta TriLux (Perkin-Elmer Life Sciences). The ability of the test agent to block sodium channel activity is determined by comparing the amount of ^14C-guanidine present inside the cells expressing the different sodium channels.
The IC50 value of a test agent for a specific sodium channel may be determined using the above general method. […] Typically the mid-point concentration of test agent is set at 1 μM, and sequential concentrations of half dilutions greater or smaller are applied (e.g. 0.5 μM; 5 μM and 0.25 μM; 10 μM and 0.125 μM; 20 μM etc.). The IC50 curve is calculated using the 4 Parameter Logistic Model or Sigmoidal Dose-Response Model formula (fit=(A+((B−A)/(1+((C/x)^D)))).
The fold selectivity, factor of selectivity or multiple of selectivity, is calculated by dividing the IC50 value of the test sodium channel by the reference sodium channel, for example, Nav1.5. […]

Each structure is given as a SMILES string.

This note sets out measurements from patent publication US8263606B2 (Xenon Pharmaceuticals Inc., priority 2008, dated 2012).

CYP3A4, sequence (P08684 whole entry): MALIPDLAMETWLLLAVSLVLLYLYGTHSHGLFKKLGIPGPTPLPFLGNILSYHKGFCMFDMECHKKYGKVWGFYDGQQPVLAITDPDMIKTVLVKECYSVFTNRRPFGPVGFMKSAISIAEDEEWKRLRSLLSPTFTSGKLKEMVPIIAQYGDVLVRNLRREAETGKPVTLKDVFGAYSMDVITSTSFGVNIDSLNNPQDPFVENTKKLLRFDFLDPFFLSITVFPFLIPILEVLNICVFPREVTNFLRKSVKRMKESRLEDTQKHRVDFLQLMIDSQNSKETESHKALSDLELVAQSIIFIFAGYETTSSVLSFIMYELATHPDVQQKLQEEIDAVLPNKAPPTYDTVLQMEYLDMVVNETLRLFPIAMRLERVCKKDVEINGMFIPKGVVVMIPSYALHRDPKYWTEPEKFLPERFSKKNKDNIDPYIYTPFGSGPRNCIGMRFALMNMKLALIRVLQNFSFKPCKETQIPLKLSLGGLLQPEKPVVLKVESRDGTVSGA

The inhibition is the percentage by which the read-out fell short of the control. As a reminder, the IC50 is the concentration that inhibits the measured activity by half. Regarding `O=C1N(Cc2ccccn2)c2ccccc2C12COc1cc3c(c(F)c12)OCCO3` (stereo not drawn) [Example 5.25, 9-fluoro-1′-(pyridin-2-ylmethyl)-2,3-dihydro-spiro[furo[2,3-g][1,4]benzodioxine-8,3′-indol]-2′(1′H)-one], at CYP3A4, the inhibition at 10 µM is over 50%. Further, the IC50 in the data set on sodium channel was 1 to 100 nM.
On to `O=C1N(Cc2ncccc2C(F)(F)F)c2ccccc2C12COc1cc3c(c(F)c12)OCCO3` (stereo not drawn) [Example 5.26, 9-fluoro-1′-{[3-(trifluoromethyl)pyridin-2-yl]methyl}-2,3-dihydrospiro[furo[2,3-g][1,4]benzodioxine-8,3′-indol]-2′(1′H)-one], for which, on CYP3A4, the inhibition at 10 µM was under 50%. The IC50 in the data set on sodium channel was 1 to 100 nM.
Consider `O=C1N(Cc2ccc(O)cn2)c2ccccc2C12COc1cc3c(c(F)c12)OCCO3` (stereo not drawn) [Example 5.27, 9-fluoro-1′-[(5-hydroxypyridin-2-yl)methyl]-2,3-dihydrospiro[furo[2,3-g][1,4]benzodioxine-8,3′-indol]-2′(1′H)-one], for which the inhibition at 10 µM at CYP3A4 was over 50%. Besides, the IC50 in the data set with sodium channel lay in the range of 100 to 1000 nM.
Taken in the same sequence, the figures for `O=C1N(Cc2ccccn2)c2ccccc2C12COc1cc3c(cc12)OCCC3` (stereo not drawn) [Example 5.28, 1′-(pyridin-2-ylmethyl)-7,8-dihydro-6H-spiro-[furo[2,3-g]chromene-3,3′-indol]-2′(1′H)-one] were over 50% and 1 to 100 nM.
On to `O=C1N(Cc2ncccc2C(F)(F)F)c2ccccc2C12COc1cc3c(cc12)OCCC3` (stereo not drawn) [Example 5.29, 1-{[3-(trifluoromethyl)pyridin-2-yl]methyl}-7,8-dihydro-6H-spiro[furo[2,3-g]chromene-3,3′-indol]-2′(1′H)-one], for which the inhibition at 10 µM on CYP3A4 was under 50%. For the same compound, in the data set with sodium channel, the IC50 lay in the range of 100 to 1000 nM.
Take `O=C1N(Cc2ccccn2)c2ccccc2C12COc1cc3c(cc12)S(=O)(=O)C=C3` (stereo not drawn) [Example 5.31, 1-(pyridin-2-ylmethyl)spiro[indole-3,3′-thieno[2,3-f][1]benzofuran]-2(1′H)-one 5,5′-dioxide]: the inhibition at 10 µM at CYP3A4 was under 50%. Further, the IC50 in the data set with sodium channel fell in the range of 1000 to 10000 nM.
On to `Cc1cc2c(cc1C)C1(CO2)C(=O)N(CC2CCCCO2)c2ccccc21` (stereo not drawn) [Example 6.2, 5,6-dimethyl-1′-(tetrahydro-2H-pyran-2-ylmethyl)spiro[1-benzofuran-3,3′-indol]-2′(1′H)-one], for which, at CYP3A4, the inhibition at 10 µM was over 50%. Moreover, the IC50 in the data set on sodium channel was 100 to 1000 nM.
Consider `O=C1N(Cc2cccc([N+](=O)[O-])c2)c2ccccc2C12COc1cc3c(cc12)OCCO3` (stereo not drawn) [Example 7.10], for which the inhibition at 10 µM on CYP3A4 is under 50%. In addition, in the data set on sodium channel, the IC50 was in the range of 1 to 100 nM.
For `O=C1N(Cc2cncs2)c2ccccc2C12COc1cc3c(cc12)OCCO3` (stereo not drawn) [Example 7.11] the same measures were over 50% and 1 to 100 nM.
For `O=C1N(Cc2ccc(C(F)(F)F)cn2)c2ccccc2C12COc1cc3c(cc12)OCCO3` (stereo not drawn) [Example 7.12] the same measures were over 50% and 1 to 100 nM.
For `O=C1N(Cc2ncccc2C(F)(F)F)c2ccccc2C12COc1cc3c(cc12)OCCO3` (stereo not drawn) [Example 7.13] the same measures were over 50% and 1 to 100 nM.
Turning to `O=C1N(Cc2cc(-c3cccnc3)no2)c2ccccc2C12COc1cc3c(cc12)OCCO3` (stereo not drawn) [Example 7.14], the inhibition at 10 µM at CYP3A4 is over 50%. The IC50 with sodium channel was in the range of 1 to 100 nM.
For `CN(C)S(=O)(=O)c1cccc(CN2C(=O)C3(COc4cc5c(cc43)OCCO5)c3ccccc32)c1` (stereo not drawn) [Example 7.16, N,N-dimethyl-3-[(2′-oxo-2,3-dihydrospiro[furo[2,3-g][1,4]benzodioxine-8,3′-indol]-1′-(2′H)-yl)methyl]benzenesulfonamide] the same measures were over 50% and 1000 to 10000 nM.
Taken in the same sequence, the figures for `O=C1N(Cc2cccc(S(=O)(=O)N3CCOCC3)c2)c2ccccc2C12COc1cc3c(cc12)OCCO3` (stereo not drawn) [Example 7.17, 1′-[3-(morpholin-4-ylsulfonyl)benzyl]-2,3-dihydrospiro[furo[2,3-g][1,4]benzodioxine-8,3′-indol]-2′(1′H)-one] were over 50% and 1000 to 10000 nM.
On to `Cc1nonc1CN1C(=O)C2(COc3cc4c(cc32)OCCO4)c2ccccc21` (stereo not drawn) [Example 7.18, 1′-[(4-methyl-1,2,5-oxadiazol-3-yl)methyl]-2,3-dihydrospiro[furo[2,3-g][1,4]benzodioxine-8,3′-indol]-2′(1′H)-one], for which, at CYP3A4, the inhibition at 10 µM was under 50%. Moreover, in the data set on sodium channel, the IC50 fell in the range of 1 to 100 nM.
As to `O=C1N(Cc2cccc(F)c2F)c2ccccc2C12COc1cc3c(cc12)OCCO3` (stereo not drawn) [Example 7.19, 1-(2,3-difluorobenzyl)-2,3-dihydrospiro[furo[2,3-g][1,4]benzodioxine-8,3′-indol]-2′(1′H)-one], the inhibition at 10 µM at CYP3A4 is over 50%. Also, in the data set with sodium channel, the 50% inhibitory concentration (IC50) was in the range of 1 to 100 nM.
As for `O=C1N(Cc2cc(F)cc(F)c2)c2ccccc2C12COc1cc3c(cc12)OCCO3` (stereo not drawn) [Example 7.20, 1′-(3,5-difluorobenzyl)-2,3-dihydrospiro[furo[2,3-g][1,4]benzodioxine-8,3′-indol]-2′(1′H)-one], the inhibition at 10 µM on CYP3A4 was over 50%. For the same compound, the IC50 in the data set on sodium channel is 1 to 100 nM.
Taken in the same sequence, the figures for `O=C1N(Cc2ccc(F)cc2)c2ccccc2C12COc1cc3c(cc12)OCCO3` (stereo not drawn) [Example 7.21, 1′-(4-fluorobenzyl)-2,3-dihydrospiro[furo[2,3-g][1,4]benzodioxine-8,3′-indol]-2′(1′H)-one] were over 50% and 1 to 100 nM.
Turning to `O=C1N(Cc2ccc(F)cc2Cl)c2ccccc2C12COc1cc3c(cc12)OCCO3` (stereo not drawn) [Example 7.22, 1′-(2-chloro-4-fluorobenzyl)-2,3-dihydrospiro[furo[2,3-g][1,4]benzodioxine-8,3′-indol]-2′(1′H)-one], the inhibition at 10 µM on CYP3A4 was under 50%. Also, the IC50 in the data set with sodium channel fell in the range of 1 to 100 nM.
Turning to `Cn1nnc2cc(CN3C(=O)C4(COc5cc6c(cc54)OCCO6)c4ccccc43)ccc21` (stereo not drawn) [Example 7.23, 1′-[(1-methyl-1H-benzotriazol-5-yl)methyl]-2,3-dihydrospiro[furo[2,3-g][1,4]-benzodioxine-8,3′-indol]-2′(1′H)-one], the inhibition at 10 µM on CYP3A4 was under 50%. Further, the IC50 in the data set on sodium channel lay within 1 to 100 nM.
Taken in the same sequence, the figures for `O=C1N(Cc2cccc(OC(F)(F)F)c2)c2ccccc2C12COc1cc3c(cc12)OCCO3` (stereo not drawn) [Example 7.24, 1′-[(3-trifluoromethoxy)benzyl]-2,3-dihydrospiro[furo[2,3-g][1,4]benzodioxine-8,3′-indol]-2′(1′H)-one] were over 50% and 1 to 100 nM.
For `O=C1N(Cc2c(F)cccc2C(F)(F)F)c2ccccc2C12COc1cc3c(cc12)OCCO3` (stereo not drawn) [Example 7.25, 1′-[(2-fluoro-6-trifluoromethyl)benzyl]-2,3-dihydrospiro[furo[2,3-g][1,4]benzodioxine-8,3′-indol]-2′(1′H)-one] the same measures were under 50% and 1 to 100 nM.
Taken in the same sequence, the figures for `O=C1N(Cc2cc(C(F)(F)F)ccc2F)c2ccccc2C12COc1cc3c(cc12)OCCO3` (stereo not drawn) [Example 7.26, 1′-[(2-fluoro-5-trifluoromethyl)benzyl]-2,3-dihydrospiro[furo[2,3-g][1,4]benzodioxine-8,3′-indol]-2′(1′H)-one] were under 50% and 1 to 100 nM.
With `O=C1N(Cc2ccccc2OC(F)(F)F)c2ccccc2C12COc1cc3c(cc12)OCCO3` (stereo not drawn) [Example 7.27, 1′-[(2-trifluoromethoxy)benzyl]-2,3-dihydrospiro[furo[2,3-g][1,4]benzodioxine-8,3′-indol]-2′(1′H)-one], the inhibition at 10 µM on CYP3A4 is under 50%. Also, in the data set on sodium channel, the IC50 was in the range of 1 to 100 nM.
